Measurements taken from US20070128217A1 (priority 2003, published 2007).

Legend:
[1] = tested on: control sera (pooled serum of ten healthy LUMC hospital workers; commercial negative donor pooled serum from the Dutch bloodbank); format: binding, human; set-up: Binding of Control serum LUMC to linear peptides / Binding of Control serum Blood-bank to linear peptides / Binding of Control serum LUMC to looped peptides / Binding of Control Serum Blood-Bank to Looped peptides / Binding of Control serum LUMC to linear peptides of the protein M of SARS-CoV Urbani / Binding of Control serum Blood-bank to linear peptides of the protein M of SARS-CoV Urbani / Binding of Control serum LUMC to looped peptides of the protein M of SARS-CoV Urbani / Binding of Control Serum Blood-Bank to Looped peptides of the protein M of SARS-CoV Urbani: unit not given here
[2] = tested on: rabbit serum obtained by immunizing a rabbit with the SARS-CoV strain Frankfurt 1; format: binding; set-up: Binding of a rabbit serum to linear peptides / Binding of a rabbit serum to looped peptides / Rabbit serum linear peptides / Rabbit serum looped peptides / Binding of a rabbit serum to linear peptides of protein N of SARS-CoV Urbani (Rabbit serum linear peptides) / Binding of a rabbit serum to looped/cyclic peptides of protein N of SARS-CoV Urbani (Rabbit serum looped peptides): unit not given here

Sequence | Binding of Control Serum Blood-Bank to Looped peptides [1] | Binding of Control serum Blood-bank to linear peptides [1] | Binding of Control serum LUMC to linear peptides [1] | Binding of Control serum LUMC to looped peptides [1] | Rabbit serum linear peptides [2] | Rabbit serum looped peptides [2] | Binding of a rabbit serum to linear peptides [2] | Binding of a rabbit serum to looped peptides [2] | also measured
QHQNSKKTTKLVVIL | 0.6 | 0.5 | 0.6 | 0.5 | – | – | – | – | Recognition of the peptide by the rabbit serum [2]: recognized
QLFKPLTKKNYSELD | – | – | – | – | 0.3 | 0.3 | – | – | Binding of Control Serum Blood-Bank to Looped peptides of the protein X3 of SARS-CoV Urbani [1]: 0.8; Binding of Control serum Blood-bank to linear peptides of the protein X3 of SARS-CoV Urbani [1]: 0.8; Binding of Control serum LUMC to linear peptides of the protein X3 of SARS-CoV Urbani [1]: 0.8; Binding of Control serum LUMC to looped peptides of the protein X3 of SARS-CoV Urbani [1]: 0.8
QNSKKTTKLVVILRI | 0.7 | 0.5 | 0.8 | 0.7 | – | – | – | – | Recognition of the peptide by the rabbit serum [2]: recognized
QPVKIDNASPASTVH | 0.6 | 0.6 | 0.6 | 0.6 | – | – | 0.1 | 0.4 | –
RFFTLGSITAQPVKI | 0.8 | 1.0 | 1.1 | 0.7 | – | – | 1.7 | 0.5 | –
RGTTVLLKEPCPSGT | 0.9 | 0.9 | 0.8 | 0.8 | 0.4 | 0.5 | – | – | –
RMAGHPLGRCDIKDL | – | – | – | – | 0.1 | 0.6 | – | – | Binding of Control Serum Blood-Bank to Looped peptides of the protein M of SARS-CoV Urbani [1]: 0.9; Binding of Control serum Blood-bank to linear peptides of the protein M of SARS-CoV Urbani [1]: 0.7; Binding of Control serum LUMC to linear peptides of the protein M of SARS-CoV Urbani [1]: 0.7; Binding of Control serum LUMC to looped peptides of the protein M of SARS-CoV Urbani [1]: 0.8
RTFRIAIWNLDVIIS | – | – | – | – | 0.3 | 0.4 | – | – | Binding of Control Serum Blood-Bank to Looped peptides of the protein X3 of SARS-CoV Urbani [1]: 0.9; Binding of Control serum Blood-bank to linear peptides of the protein X3 of SARS-CoV Urbani [1]: 0.7; Binding of Control serum LUMC to linear peptides of the protein X3 of SARS-CoV Urbani [1]: 0.6; Binding of Control serum LUMC to looped peptides of the protein X3 of SARS-CoV Urbani [1]: 0.8
RWHTMVQTCTPNVTI | 0.9 | 0.9 | 0.6 | 0.9 | 0.5 | 0.6 | – | – | –
SEDRHSGVKDYVVVH | 0.5 | 1.0 | 0.8 | 0.5 | – | – | 0.1 | 0.4 | –
SGTYEGNSPFHPLAD | 0.8 | 0.8 | 0.8 | 0.8 | 0.6 | 0.6 | – | – | –
SGVANPAMDPIYDEP | 0.5 | 0.4 | 0.3 | 0.5 | – | – | 1.1 | 0.6 | –
SGVKDYVVVHGYFTE | 0.2 | 0.5 | 0.6 | 0.5 | – | – | 0.1 | 0.7 | –
SITAQPVKIDNASPA | 0.4 | 0.6 | 0.6 | 0.4 | – | – | 0.1 | 0.4 | –
SKKTTKLVVILRIGT | 0.7 | 0.6 | 0.8 | 0.7 | – | – | – | – | Recognition of the peptide by the rabbit serum [2]: recognized
SRVKNLNSSEGVPDL | 0.5 | 0.9 | 0.7 | 0.7 | – | – | 0.7 | 0.0 | –

Sequence | Binding of Control Serum Blood-Bank to Looped peptides [1] | Binding of Control serum Blood-bank to linear peptides [1] | Binding of Control serum LUMC to linear peptides [1] | Binding of Control serum LUMC to looped peptides [1] | Rabbit serum linear peptides [2] | Rabbit serum looped peptides [2] | Binding of a rabbit serum to linear peptides [2] | Binding of a rabbit serum to looped peptides [2] | also measured
STPKLKEDYQIGGYS | 0.2 | 0.7 | 0.7 | 0.3 | – | – | 0.1 | 0.3 | –
TDHAGSNDNIALLVQ | – | – | – | – | 0.1 | 0.2 | – | – | Binding of Control Serum Blood-Bank to Looped peptides of the protein M of SARS-CoV Urbani [1]: 1.0; Binding of Control serum Blood-bank to linear peptides of the protein M of SARS-CoV Urbani [1]: 0.7; Binding of Control serum LUMC to linear peptides of the protein M of SARS-CoV Urbani [1]: 1.0; Binding of Control serum LUMC to looped peptides of the protein M of SARS-CoV Urbani [1]: 1.0
TFFIFNKLVKDPPNV | 0.6 | 0.7 | 0.6 | 0.6 | – | – | 0.1 | 0.5 | –
TINCQDPAGGALIAR | 1.3 | 1.0 | 0.6 | 1.0 | 0.6 | 0.7 | – | – | –
TMVQTCTPNVTINCQ | 0.9 | 0.7 | 0.7 | 0.7 | 0.5 | 0.4 | – | – | –
TTVLLKEPCPSGTYE | 0.9 | 0.9 | 0.9 | 1.0 | 0.4 | 0.5 | – | – | –
TVLLKEPCPSGTYEG | 0.7 | 0.7 | 0.8 | 0.8 | 0.2 | 0.2 | – | – | –
VKDPPNVQIHTIDGS | 0.5 | 0.4 | 0.4 | 0.6 | – | – | 0.1 | 0.5 | –
VKIDNASPASTVHAT | 0.5 | 0.7 | 0.7 | 0.6 | – | – | 0.2 | 0.3 | –
VLKTMSLYMAISPKF | 0.7 | 0.9 | 0.5 | 0.6 | – | – | 0.3 | 0.5 | –
VRGTTVLLKEPCPSG | 0.8 | 0.8 | 1.0 | 0.9 | 0.4 | 0.4 | – | – | –
VRQLFKPLTKKNYSE | – | – | – | – | 0.4 | 2.2 | – | – | Binding of Control Serum Blood-Bank to Looped peptides of the protein X3 of SARS-CoV Urbani [1]: 0.9; Binding of Control serum Blood-bank to linear peptides of the protein X3 of SARS-CoV Urbani [1]: 0.9; Binding of Control serum LUMC to linear peptides of the protein X3 of SARS-CoV Urbani [1]: 0.7; Binding of Control serum LUMC to looped peptides of the protein X3 of SARS-CoV Urbani [1]: 0.7
VTGGIAIAMACIVGL | – | – | – | – | 0.3 | 0.4 | – | – | Binding of Control Serum Blood-Bank to Looped peptides of the protein M of SARS-CoV Urbani [1]: 0.7; Binding of Control serum Blood-bank to linear peptides of the protein M of SARS-CoV Urbani [1]: 1.1; Binding of Control serum LUMC to linear peptides of the protein M of SARS-CoV Urbani [1]: 1.3; Binding of Control serum LUMC to looped peptides of the protein M of SARS-CoV Urbani [1]: 0.8
VTINCQDPAGGALIA | 0.5 | 0.8 | 0.6 | 0.5 | 0.5 | 0.0 | – | – | –
WVTGGIAIAMACIVG | – | – | – | – | 0.4 | 0.2 | – | – | Binding of Control Serum Blood-Bank to Looped peptides of the protein M of SARS-CoV Urbani [1]: 0.8; Binding of Control serum Blood-bank to linear peptides of the protein M of SARS-CoV Urbani [1]: 0.8; Binding of Control serum LUMC to linear peptides of the protein M of SARS-CoV Urbani [1]: 0.4; Binding of Control serum LUMC to looped peptides of the protein M of SARS-CoV Urbani [1]: 0.9
